Source: patent US4345938A, “Herbicidal 2-haloacetanilides” (Monsanto Company, priority 1980, dated 1982)
Read-outs that look alike come from different tables or passages of the source.

What was measured:
Type in all cases: in vivo
Cyperus serotinus [1] = test: Field transplant rice test, applied 9 DAT, CS; conditions: for inhibition at 375 g/ha / inhibition at 750 g/ha / inhibition at 1500 g/ha / inhibition at 3000 g/ha: Cyperus serotinus, 216 h, read-out: Percent Inhibition, CS; for inhibition at 375 g/ha: 0.375 Kg/Ha; for inhibition at 750 g/ha: 0.75 Kg/Ha; for inhibition at 1500 g/ha: 1.5 Kg/Ha; for inhibition at 3000 g/ha: 3.0 Kg/Ha
Source text: (§1) In the discussion of data below, occasional reference is made to herbicide application rates symbolized as "GR15 " and "GR85 "; these rates are given in kilograms per hectare (kg/ha) which are convertible into pounds per acre (lbs/A) by dividing the kg/ha rate by 1.12.
(§2) A further guide to the effectiveness of a chemical as a selective herbicide is the "selectivity factor" ("SF") for a herbicide in given crops and weeds. The selectivity factor is a measure of the relative degree of crop safety and weed injury and is expressed in terms of the GR15 /GR85 ratio, i.e., the GR15 rate for the crop divided by the GR85 rate for the weed, both rates in kg/ha (lb/A.)
(§3) The test data in Table III for all compounds was obtained under identical test conditions. The weeds used in the tests herein have the following abbreviations in the tables: Echinochloa crus-galli (EC), Monochloria vaginalis (MV), Cyperus Serotinus (CS), Eleocharis Kuroguwai (EK) and Sagittaria trifolia (ST).
(§4) In further comparative tests, a preferred compound of this invention (Example 1) was tested in the field with prior art Compounds A-D. These tests were conducted under conditions reflecting herbicide application times generally favorable to all herbicides in the test. The timing of application of herbicides to transplant rice is very important, whether, as in some instances, prior to transplanting the rice; in other instances, at the time of transplanting or else after transplanting. Application times are conventionally referred to as "days before transplant" (DBT) or "days after transplant" ("DAT"). The field test data in Table IV was obtained from a test in which the herbicides were applied at the time of transplant, i.e., "0 DAT", with observations being made weekly up to six weeks after transplant ("WAT") beginning at two weeks after transplant; for illustrative and representative purposes, only the early, middle and late period observations, i.e., 2 WAT, 4 WAT and 6 WAT, are shown in Table IV. The data in Table IV is for rates of application common to all herbicides in the test, i.e., from 3.0 kg/ha (2.67 lb/A) down to 0.375 kg/ha (0.34 lb/A). All herbicides were applied at their actual or expected use rates, i.e., as granules containing 2.5% by weight herbicide for the compound of Example 1, Compounds B, C and D and 5.0% by weight for Compound A.
(§5) In Table V are presented field data showing the relative performance of the compound of Example 1 and Compounds A-D applied 9 DAT, with observations being made weekly from 3 WAT to 7 WAT; again, for illustrative and representative purposes, only the early, middle and late period observations are reported in Table V, the herbicide rates and concentrations of active ingredients the same as is shown in Table IV.

Cyperus serotinus [2] = test: Field transplant rice test, applied 0 DAT, CS; conditions: 0 h, read-out: Percent Inhibition, CS; for inhibition at 375 g/ha: 0.375 Kg/Ha; for inhibition at 750 g/ha: 0.75 Kg/Ha; for inhibition at 1500 g/ha: 1.5 Kg/Ha; for inhibition at 3000 g/ha: 3.0 Kg/Ha
Description: as §3, §4

Rice = test: Field transplant rice test, applied 0 DAT, rice injury; conditions: Oryza sativa, 0 h, read-out: Percent Inhibition, Rice; for inhibition at 375 g/ha: 0.375 Kg/Ha; for inhibition at 750 g/ha: 0.75 Kg/Ha; for inhibition at 1500 g/ha: 1.5 Kg/Ha; for inhibition at 3000 g/ha: 3.0 Kg/Ha
Description: as §4

Monochoria vaginalis = test: Field transplant rice test, applied 0 DAT, MV; conditions: Pontederia vaginalis, 0 h, read-out: Percent Inhibition, MV; for inhibition at 375 g/ha: 0.375 Kg/Ha; for inhibition at 750 g/ha: 0.75 Kg/Ha; for inhibition at 1500 g/ha: 1.5 Kg/Ha; for inhibition at 3000 g/ha: 3.0 Kg/Ha
Description: as §3, §4

Eleocharis kuroguwai = test: Field transplant rice test, applied 9 DAT, EK; conditions: for inhibition at 375 g/ha / inhibition at 750 g/ha / inhibition at 1500 g/ha / inhibition at 3000 g/ha: Eleocharis kuroguwai, 216 h, read-out: Percent Inhibition, EK; for inhibition at 375 g/ha: 0.375 Kg/Ha; for inhibition at 750 g/ha: 0.75 Kg/Ha; for inhibition at 1500 g/ha: 1.5 Kg/Ha; for inhibition at 3000 g/ha: 3.0 Kg/Ha
Source text: as §1, §2, §3, §4, §5

Q: With CCCCOCCN(C(=O)CCl)c1c(CC)cccc1CC [Compound B, 2',6'-diethyl-N-(n-butoxyethyl)-2-chloroacetanilide] as the compound, how does the inhibition at 375 g/ha (Cyperus serotinus [1]; 3 WAT) read?
A: 93%

Q: What about the inhibition at 375 g/ha (Cyperus serotinus [1]; 5 WAT) of the same compound?
A: 100%

Q: What about the inhibition at 375 g/ha (Cyperus serotinus [1]; 7 WAT) of the same compound?
A: 77%

Q: What about the inhibition at 750 g/ha (Cyperus serotinus [1]; 3 WAT) of the same compound?
A: 78%

Q: What about the inhibition at 750 g/ha (Cyperus serotinus [1]; 5 WAT) of the same compound?
A: 67%

Q: What about the inhibition at 750 g/ha (Cyperus serotinus [1]; 7 WAT) of the same compound?
A: 67%

Q: And the inhibition at 1500 g/ha (Cyperus serotinus [1]; 3 WAT)?
A: 87%

Q: What about the inhibition at 1500 g/ha (Cyperus serotinus [1]; 5 WAT) of the same compound?
A: 85%

Q: And the inhibition at 1500 g/ha (Cyperus serotinus [1]; 7 WAT)?
A: 67%

Q: What about the inhibition at 3000 g/ha (Cyperus serotinus [1]; 3 WAT) of the same compound?
A: 75%

Q: What about the inhibition at 3000 g/ha (Cyperus serotinus [1]; 5 WAT) of the same compound?
A: 72%

Q: What about the inhibition at 3000 g/ha (Cyperus serotinus [1]; 7 WAT) of the same compound?
A: 65%

Q: What about the “selectivity factor (GR15/GR85), CS in transplant rice” value (Cyperus serotinus [1]; between 3 WAT and 7 WAT) of the same compound?
A: 1

Q: What about the inhibition at 375 g/ha (Cyperus serotinus [2]; 2 WAT) of the same compound?
A: 62%

Q: What about the inhibition at 375 g/ha (Cyperus serotinus [2]; 4 WAT) of the same compound?
A: 55%

Q: What about the inhibition at 375 g/ha (Cyperus serotinus [2]; 6 WAT) of the same compound?
A: 3%

Q: What about the inhibition at 750 g/ha (Cyperus serotinus [2]; 2 WAT) of the same compound?
A: 70%

Q: What about the inhibition at 750 g/ha (Cyperus serotinus [2]; 4 WAT) of the same compound?
A: 53%

Q: What about the inhibition at 750 g/ha (Cyperus serotinus [2]; 6 WAT) of the same compound?
A: 12%

Q: And the inhibition at 1500 g/ha (Cyperus serotinus [2]; 2 WAT)?
A: 82%

Q: And the inhibition at 1500 g/ha (Cyperus serotinus [2]; 4 WAT)?
A: 83%

Q: What about the inhibition at 1500 g/ha (Cyperus serotinus [2]; 6 WAT) of the same compound?
A: 45%

Q: What about the inhibition at 3000 g/ha (Cyperus serotinus [2]; 2 WAT) of the same compound?
A: 72%

Q: And the inhibition at 3000 g/ha (Cyperus serotinus [2]; 4 WAT)?
A: 62%

Q: And the inhibition at 3000 g/ha (Cyperus serotinus [2]; 6 WAT)?
A: 37%

Q: What about the inhibition at 375 g/ha (Rice; 2 WAT) of the same compound?
A: 7%

Q: And the inhibition at 375 g/ha (Rice; 4 WAT)?
A: 3%

Q: What about the inhibition at 375 g/ha (Rice; 6 WAT) of the same compound?
A: 7%

Q: And the inhibition at 750 g/ha (Rice; 2 WAT)?
A: 3%

Q: And the inhibition at 750 g/ha (Rice; 4 WAT)?
A: 2%

Q: What about the inhibition at 750 g/ha (Rice; 6 WAT) of the same compound?
A: 3%

Q: And the inhibition at 1500 g/ha (Rice; 2 WAT)?
A: 10%

Q: What about the inhibition at 1500 g/ha (Rice; 4 WAT) of the same compound?
A: 3%

Q: What about the inhibition at 1500 g/ha (Rice; 6 WAT) of the same compound?
A: 0%

Q: And the inhibition at 3000 g/ha (Rice; 2 WAT)?
A: 7%

Q: What about the inhibition at 3000 g/ha (Rice; 4 WAT) of the same compound?
A: 2%

Q: What about the inhibition at 3000 g/ha (Rice; 6 WAT) of the same compound?
A: 3%

Q: What about the inhibition at 375 g/ha (Monochoria vaginalis; 2 WAT) of the same compound?
A: 97%

Q: And the inhibition at 375 g/ha (Monochoria vaginalis; 4 WAT)?
A: 90%

Q: And the inhibition at 375 g/ha (Monochoria vaginalis; 6 WAT)?
A: 80%

Q: And the inhibition at 750 g/ha (Monochoria vaginalis; 2 WAT)?
A: 95%

Q: And the inhibition at 750 g/ha (Monochoria vaginalis; 4 WAT)?
A: 98%

Q: And the inhibition at 750 g/ha (Monochoria vaginalis; 6 WAT)?
A: 100%

Q: And the inhibition at 1500 g/ha (Monochoria vaginalis; 2 WAT)?
A: 98%

Q: And the inhibition at 1500 g/ha (Monochoria vaginalis; 4 WAT)?
A: 100%

Q: What about the inhibition at 1500 g/ha (Monochoria vaginalis; 6 WAT) of the same compound?
A: 100%

Q: And the inhibition at 3000 g/ha (Monochoria vaginalis; 2 WAT)?
A: 100%

Q: What about the inhibition at 3000 g/ha (Monochoria vaginalis; 4 WAT) of the same compound?
A: 100%

Q: What about the inhibition at 3000 g/ha (Monochoria vaginalis; 6 WAT) of the same compound?
A: 97%

Q: And the “selectivity factor (GR15/GR85), EK in transplant rice” value (Eleocharis kuroguwai; 3 WAT)?
A: non-selective

Q: And the inhibition at 375 g/ha (Eleocharis kuroguwai; 3 WAT)?
A: 27%

Q: And the inhibition at 375 g/ha (Eleocharis kuroguwai; 5 WAT)?
A: 3%

Q: And the inhibition at 375 g/ha (Eleocharis kuroguwai; 7 WAT)?
A: 0%

Q: And the inhibition at 750 g/ha (Eleocharis kuroguwai; 3 WAT)?
A: 28%

Q: What about the inhibition at 750 g/ha (Eleocharis kuroguwai; 5 WAT) of the same compound?
A: 5%

Q: What about the inhibition at 750 g/ha (Eleocharis kuroguwai; 7 WAT) of the same compound?
A: 0%

Q: What about the inhibition at 1500 g/ha (Eleocharis kuroguwai; 3 WAT) of the same compound?
A: 42%

Q: And the inhibition at 1500 g/ha (Eleocharis kuroguwai; 5 WAT)?
A: 32%

Q: What about the inhibition at 1500 g/ha (Eleocharis kuroguwai; 7 WAT) of the same compound?
A: 0%

Q: What about the inhibition at 3000 g/ha (Eleocharis kuroguwai; 3 WAT) of the same compound?
A: 55%

Q: And the inhibition at 3000 g/ha (Eleocharis kuroguwai; 5 WAT)?
A: 43%

Q: What about the inhibition at 3000 g/ha (Eleocharis kuroguwai; 7 WAT) of the same compound?
A: 18%
